Experimental findings from ChEMBL document CHEMBL3046126, “Synthesis and Herbicidal Activity of New Oxazolidinedione Derivatives” (J Pestic Sci, 1999) are described below.

In series [1] the test system is Oryza sativa. In words: Pre-emergence phytotoxicity against Oryza sativa cv. Koshihikari (rice) assessed as phytotoxic crop injury visual ratings at 1.25 kg ai/ha measured after 14 days post treatment under flooded conditions. Format: organism-based. The settings on record: in vivo, other, 336 h.
The subject of series [2] is Lindernia procumbens. The series is described as follows: Pre-emergence herbicidal activity against Lindernia procumbens assessed as phytotoxic weed control visual ratings at 1.25 kg ai/ha measured after 14 days post treatment under flooded conditions. Format: functional.
Series [3] concerns Echinochloa oryzicola. The series is described as follows: Pre-emergence herbicidal activity against Echinochloa oryzicola assessed as phytotoxic weed control visual ratings at 1.25 kg ai/ha measured after 14 days post treatment under flooded conditions. The series is classed as functional.
Series [4] has as its system Cyperus difformis. The series is described as follows: Pre-emergence herbicidal activity against Cyperus difformis assessed as phytotoxic weed control visual ratings at 1.25 kg ai/ha measured after 14 days post treatment under flooded conditions. Format: functional.
Series [5] concerns Elatine triandra. In words: Pre-emergence herbicidal activity against Elatine triandra assessed as phytotoxic weed control visual ratings at 1.25 kg ai/ha measured after 14 days post treatment under flooded conditions. Format: functional.
Series [6] concerns Schoenoplectiella juncoides. The series is described as follows: Pre-emergence herbicidal activity against Schoenoplectiella juncoides assessed as phytotoxic weed control visual ratings at 1.25 kg ai/ha measured after 14 days post treatment under flooded conditions. The series is classed as functional.
For series [7], the system named is Rotala indica. In words: Pre-emergence herbicidal activity against Rotala indica assessed as phytotoxic weed control visual ratings at 1.25 kg ai/ha measured after 14 days post treatment under flooded conditions. Format: functional.
The subject of series [8] is Pontederia vaginalis. The series is described as follows: Pre-emergence herbicidal activity against Monochoria vaginalis assessed as phytotoxic weed control visual ratings at 1.25 kg ai/ha measured after 14 days post treatment under flooded conditions. The series is classed as functional.
The test system of series [9] is Pontederia vaginalis. The series is described as follows: Pre-emergence herbicidal activity against Monochoria vaginalis assessed as phytotoxic weed control visual ratings at 2.5 kg ai/ha measured after 14 days post treatment under flooded conditions. The series is classed as functional.
In series [10] the test system is Rotala indica. The series is described as follows: Pre-emergence herbicidal activity against Rotala indica assessed as phytotoxic weed control visual ratings at 2.5 kg ai/ha measured after 14 days post treatment under flooded conditions. The series is classed as functional.
Series [11] relates to Echinochloa oryzicola. In words: Pre-emergence herbicidal activity against Echinochloa oryzicola assessed as phytotoxic weed control visual ratings at 2.5 kg ai/ha measured after 14 days post treatment under flooded conditions. Format: functional.
Series [12] deals with Elatine triandra. The series is described as follows: Pre-emergence herbicidal activity against Elatine triandra assessed as phytotoxic weed control visual ratings at 2.5 kg ai/ha measured after 14 days post treatment under flooded conditions. The series is classed as functional.
Series [13] concerns Lindernia procumbens. In words: Pre-emergence herbicidal activity against Lindernia procumbens assessed as phytotoxic weed control visual ratings at 2.5 kg ai/ha measured after 14 days post treatment under flooded conditions. Format: functional.
For series [14], the system named is Schoenoplectiella juncoides. The series is described as follows: Pre-emergence herbicidal activity against Schoenoplectiella juncoides assessed as phytotoxic weed control visual ratings at 2.5 kg ai/ha measured after 14 days post treatment under flooded conditions. The series is classed as functional.
Series [15] has as its system Oryza sativa. In words: Pre-emergence phytotoxicity against Oryza sativa cv. Koshihikari (rice) assessed as phytotoxic crop injury visual ratings at 2.5 kg ai/ha measured after 14 days post treatment under flooded conditions. The series is classed as organism-based. Conditions: in vivo, other, 336 h.
The subject of series [16] is Cyperus difformis. The series is described as follows: Pre-emergence herbicidal activity against Cyperus difformis assessed as phytotoxic weed control visual ratings at 2.5 kg ai/ha measured after 14 days post treatment under flooded conditions. The series is classed as functional.
Series [17] concerns Echinochloa crus-galli. In words: Pre-emergence herbicidal activity against Echinochloa crus-galli (barnyard grass) assessed as phytotoxic weed control visual ratings at 500 g ai/ha measured after 14 days post treatment under upland field conditions. The series is classed as functional.
Series [18] has as its system Schoenoplectiella juncoides. In words: Pre-emergence herbicidal activity against Schoenoplectiella juncoides assessed as phytotoxic weed control visual ratings at 25 g ai/ha measured after 14 days post treatment under flooded conditions. Format: functional.
For series [19], the system named is Zea mays. In words: Pre-emergence phytotoxicity against Zea mays (maize) assessed as phytotoxic crop injury visual ratings at 500 g ai/ha measured after 14 days post treatment under upland field conditions. The series is classed as organism-based. The settings on record: in vivo, other, 336 h.
Series [20] relates to Chenopodium album. The series is described as follows: Pre-emergence herbicidal activity against Chenopodium album assessed as phytotoxic weed control visual ratings at 500 g ai/ha measured after 14 days post treatment under upland field conditions. Format: functional.
Series [21] deals with Oryza sativa. The series is described as follows: Pre-emergence phytotoxicity against Oryza sativa cv. Koshihikari (rice) assessed as phytotoxic crop injury visual ratings at 25 g ai/ha measured after 14 days post treatment under flooded conditions. Format: organism-based. The settings on record: in vivo, other, 336 h.
The test system of series [22] is Rotala indica. In words: Pre-emergence herbicidal activity against Rotala indica assessed as phytotoxic weed control visual ratings at 25 g ai/ha measured after 14 days post treatment under flooded conditions. Format: functional.
Series [23] has as its system Lindernia procumbens. The series is described as follows: Pre-emergence herbicidal activity against Lindernia procumbens assessed as phytotoxic weed control visual ratings at 25 g ai/ha measured after 14 days post treatment under flooded conditions. Format: functional.
Series [24] concerns Digitaria ciliaris. The series is described as follows: Pre-emergence herbicidal activity against Digitaria ciliaris assessed as phytotoxic weed control visual ratings at 500 g ai/ha measured after 14 days post treatment under upland field conditions. The series is classed as functional.
Series [25] has as its system Elatine triandra. The series is described as follows: Pre-emergence herbicidal activity against Elatine triandra assessed as phytotoxic weed control visual ratings at 25 g ai/ha measured after 14 days post treatment under flooded conditions. The series is classed as functional.
Series [26] has as its system Echinochloa oryzicola. The series is described as follows: Pre-emergence herbicidal activity against Echinochloa oryzicola assessed as phytotoxic weed control visual ratings at 25 g ai/ha measured after 14 days post treatment under flooded conditions. The series is classed as functional.
For series [27], the system named is Amaranthus viridis. The series is described as follows: Pre-emergence herbicidal activity against Amaranthus viridis assessed as phytotoxic weed control visual ratings at 500 g ai/ha measured after 14 days post treatment under upland field conditions. The series is classed as functional.
Series [28] relates to Cyperus difformis. In words: Pre-emergence herbicidal activity against Cyperus difformis assessed as phytotoxic weed control visual ratings at 25 g ai/ha measured after 14 days post treatment under flooded conditions. The series is classed as functional.
The test system of series [29] is Pontederia vaginalis. The series is described as follows: Pre-emergence herbicidal activity against Monochoria vaginalis assessed as phytotoxic weed control visual ratings at 25 g ai/ha measured after 14 days post treatment under flooded conditions. Format: functional.
In series [30] the test system is Oryza sativa. The series is described as follows: Pre-emergence phytotoxicity against Oryza sativa cv. Koshihikari (rice) assessed as phytotoxic crop injury visual ratings measured after 14 days post treatment. The settings on record: in vivo, 336 h. Format: organism-based.
Series [31] concerns Oryza sativa. The series is described as follows: Post-emergence phytotoxicity against Oryza sativa cv. Koshihikari (rice) assessed as phytotoxic crop injury visual ratings measured after 14 days post treatment. The settings on record: in vivo, 336 h. The series is classed as organism-based.
The nature of series [32]: Selectivity index, ratio of ED10 for Oryza sativa to ED90 for Echinochloa oryzicola by post-emergence exposure method.
Series [33] in a line: Selectivity index, ratio of ED10 for Oryza sativa to ED90 for Echinochloa oryzicola by pre-emergence exposure method.

Take `CCCCCC/C(C)=C1/OC(=O)N(c2ccc(Cl)cc2)C1=O`: the Phytotoxicity in series [1] is given as 0%; in series [2] it was 4%; in series [3] it was 10%; in series [4] it was 80%; in series [5], 4%; in [6], 10%. The Phytotoxicity turned out to be 4% in [7] and 50% in series [8].
Turning to `C=CC1(C)OC(=O)N(c2cc(Cl)cc(Cl)c2)C1=O` (stereo not given) [VINCLOZOLIN], the Phytotoxicity in series [9] is listed as 50%; in series [10], 50%; in series [11] it was 90%; in [12], 50%; in series [13], 50%; in [14], 30%. The Phytotoxicity in series [15] is 0%; in series [16] it was 50%.
Regarding `CCC(C)Oc1cc(N2C(=O)OC(=C(C)C)C2=O)c(F)cc1Cl` (stereo not given), the Phytotoxicity in series [17] is 20%; in series [18], 100%; in series [19], 0%; in [20] it was 10%; in series [21], 10%; in series [22], 100%. Also, the Phytotoxicity stood at 100% in series [23]; 80% in series [24]; 100% in series [25]; 80% in series [26]; 90% in series [27]; 100% in series [28]. In [29], the Phytotoxicity was found to be 100%.
`CC(C)=C1OC(=O)N(c2c(Cl)cc(Cl)cc2Cl)C1=O`: the Phytotoxicity in [9] came out at 100%; in series [10] it was 100%; in series [11] it was 30%; in [12], 100%; in series [13], 100%; in series [14], 20%. The values for the Phytotoxicity in series [15] and in [16] were 0% and 100%, respectively.
Consider `COc1cc(N2C(=O)OC(=C(C)C)C2=O)c(F)cc1Cl`, for which the Phytotoxicity is 60% in [17]; 10% in series [18]; 30% in series [19]; 90% in series [20]; 0% in [21]; 100% in [22]. Also, the Phytotoxicity in [23] amounted to 100%; in series [24], 90%; in [25], 100%; in series [26], 30%; in series [27], 80%; in [28], 100%. Also, the Phytotoxicity in series [29] is 80%.
With `C=C(C)C1(C)OC(=O)N(c2cc(Cl)cc(Cl)c2)C1=O` (stereo not given), the Phytotoxicity is 30% in series [9]; 60% in series [10]; 80% in series [11]; 60% in series [12]; 60% in series [13]; 20% in [14]. Further, the figures for the Phytotoxicity in series [15] and in series [16] were 0% and 30%, respectively.
On to `CC(C)=C1OC(=O)N(c2cc(Cl)cc(Cl)c2)C1=O`, for which the Phytotoxicity in series [9] was found to be 50%; in series [10] it was 50%; in series [11] it was 0%; in series [12], 50%; in [13], 50%; in [14] it was 30%. Moreover, the Phytotoxicity in series [15] worked out at 0%; in series [16] it was 30%.
Regarding `CCCCCCOc1cc(N2C(=O)OC(=C(C)C)C2=O)c(F)cc1Cl`, the Phytotoxicity was 10% in series [17]; 60% in series [18]; 0% in [19]; 50% in series [20]; 0% in series [21]; 70% in series [22]. Also, the Phytotoxicity amounted to 70% in series [23]; 10% in series [24]; 70% in [25]; 10% in series [26]; 100% in series [27]; 80% in series [28]. Besides, the Phytotoxicity in series [29] turned out to be 90%.
Turning to `C#CC(C)Oc1cc(N2C(=O)OC(=C(C)C)C2=O)c(F)cc1Cl` (stereo not given), the ED10 in series [30] was 6.25 gAi/ha; in [31], 12.5 gAi/ha. In addition, the Phytotoxicity amounted to 10% in [19] and 20% in series [21]. In addition, the Selectivity Index is 2 in [32] and 4 in [33].
As for `CCC(CC)Oc1cc(N2C(=O)OC(=C(C)C)C2=O)c(F)cc1Cl`, the Phytotoxicity in series [17] is given as 30%; in series [18] it was 90%; in [19], 0%; in series [20], 90%; in series [21] it was 0%; in series [22], 100%. Besides, the Phytotoxicity in [23] came to 100%; in series [24] it was 60%; in series [25] it was 100%; in series [26], 60%; in [27], 90%; in [28], 100%. The Phytotoxicity in series [29] came out at 100%.
In the case of `CC(C)=C1OC(=O)N(c2cccc(Cl)c2)C1=O`, the Phytotoxicity in series [9] is recorded as 30%; in series [10], 30%; in series [11] it was 0%; in series [12] it was 30%; in [13], 30%; in series [14] it was 10%. The Phytotoxicity in series [15] is 0%; in series [16] it was 30%.
As for `CC(C)=C1OC(=O)N(c2cc(O)c(Cl)cc2F)C1=O`, the Phytotoxicity in [17] was found to be 0%; in [18] it was 0%; in [19] it was 0%; in series [20], 10%; in series [21], 0%; in series [22], 10%. The Phytotoxicity in series [23] stood at 10%; in series [24] it was 0%; in series [25] it was 10%; in series [26], 0%; in [27] it was 0%; in [28], 30%. Further, in [29], the Phytotoxicity is 10%.
With `CC(C)=C1OC(=O)N(c2ccccc2Cl)C1=O`, the Phytotoxicity in [9], in series [10], in series [11], in series [12], in series [13] and in series [14] was 0% throughout. In addition, the Phytotoxicity in series [15] and in series [16] was 0% throughout.
Take `CCOc1cc(N2C(=O)OC(=C(C)C)C2=O)c(F)cc1Cl`: the Phytotoxicity in [17] was found to be 50%; in [18] it was 60%; in series [19], 10%; in series [20] it was 90%; in [21], 10%; in series [22] it was 100%. For the same molecule, the Phytotoxicity in series [23] is on record as 100%; in series [24], 90%; in [25], 100%; in series [26], 30%; in [27] it was 100%; in series [28] it was 100%. The Phytotoxicity in [29] is reported as 100%.
